Measurements reported in ChEMBL document CHEMBL1201862, “PubChem BioAssay data set” (2004).
Counter-ions that a name gives are not always drawn. Calls of active or inactive are those of the source.

Tests used:
[1] = target: Phospholipase D2 (Homo sapiens, UniProt O14939); assay: PLD2 inhibitor potency in cells, dose response (AID 602147); format: functional;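 also: cellular assay in HEK293 cells overexpressing GFP-tagged PLD2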
[2] = target: T1, Phospholipase D1 (Homo sapiens, UniProt Q13393); assay: PLD1 inhibitor potency in cells, dose response (AID 602151); format: functional;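 also: cellular PLD1 assay in Calu-1 cells stimulated with PMA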
T1 sequence (Q13393 whole entry): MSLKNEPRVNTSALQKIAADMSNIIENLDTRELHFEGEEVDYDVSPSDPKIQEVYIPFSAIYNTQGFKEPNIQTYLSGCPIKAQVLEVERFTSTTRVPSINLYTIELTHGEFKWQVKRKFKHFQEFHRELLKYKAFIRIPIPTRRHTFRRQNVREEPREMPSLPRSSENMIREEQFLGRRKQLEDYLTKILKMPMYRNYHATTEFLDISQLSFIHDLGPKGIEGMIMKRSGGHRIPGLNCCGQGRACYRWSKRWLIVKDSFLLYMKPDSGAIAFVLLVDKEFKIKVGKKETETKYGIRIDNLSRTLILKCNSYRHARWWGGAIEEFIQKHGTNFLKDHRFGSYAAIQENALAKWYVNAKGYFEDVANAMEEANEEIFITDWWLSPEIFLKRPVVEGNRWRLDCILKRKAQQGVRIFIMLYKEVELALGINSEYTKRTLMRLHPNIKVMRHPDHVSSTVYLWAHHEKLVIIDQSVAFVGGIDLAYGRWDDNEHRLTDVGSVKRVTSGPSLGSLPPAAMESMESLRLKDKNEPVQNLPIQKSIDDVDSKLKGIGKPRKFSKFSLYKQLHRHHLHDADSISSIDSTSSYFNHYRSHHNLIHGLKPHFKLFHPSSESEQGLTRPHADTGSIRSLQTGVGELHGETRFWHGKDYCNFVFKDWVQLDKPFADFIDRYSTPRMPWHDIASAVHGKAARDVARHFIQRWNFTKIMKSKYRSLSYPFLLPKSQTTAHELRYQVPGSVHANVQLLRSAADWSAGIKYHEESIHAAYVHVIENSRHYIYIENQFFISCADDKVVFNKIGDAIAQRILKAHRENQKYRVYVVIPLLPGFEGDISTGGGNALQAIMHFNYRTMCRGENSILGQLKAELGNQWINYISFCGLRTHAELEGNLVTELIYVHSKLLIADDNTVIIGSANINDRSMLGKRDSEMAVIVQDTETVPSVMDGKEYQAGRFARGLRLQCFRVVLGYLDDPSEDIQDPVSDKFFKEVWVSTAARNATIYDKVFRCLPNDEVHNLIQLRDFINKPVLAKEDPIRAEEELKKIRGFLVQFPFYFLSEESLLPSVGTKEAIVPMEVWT

[3] = target: Heat shock protein HSP 90-alpha (Homo sapiens, UniProt P07900); format: functional, organism-based
[4] = system: INS1; assay: beta cell apoptosis inhibitors, cytokine rescue, dose response, luminescence, retest (AID 449756); format: functional, cell-based; conditions: Rattus norvegicus;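 also: cell death triggered by IL-1 beta plus TNF-alpha plus IFN-gamma mixture; protective hits raise ATP signal compared with cytokine alone wells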
[5] = system: Streptococcus sp. 'group A'; assay: growth inhibition of control SK(-) GAS strain, dose response, counter-screen for streptokinase expression inhibitor project, luminescence, kanamycin, BacTiterGlo, confirmation (AID 1900); format: functional, organism-based
[6] = NIH-3T3 fibroblast cytotoxicity, dose response, cytotoxicity control, cell-based, fluorescence, Alamar Blue, secondary assay (AID 2327); format: functional;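 also: NIH-3T3 mouse fibroblasts cultured with fluconazole at 8 µg/mL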
[7] = C. albicans growth with fluconazole, confirmation, fluorescence, retest (AID 2467); format: functional, cell-based
[8] = system: Streptococcus; assay: Group A Streptococcus viability loss, dose response, counter-screen for streptokinase expression inhibitor project, luminescence, BacTiterGlo (AID 1915); format: functional, organism-based;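 also: potency for reduction of bacterial viability or growth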
[9] = system: Vero; assay: Vero cell cytotoxicity, cytotoxicity control for flavivirus capping enzyme inhibitors (AID 588742); format: functional; conditions: Chlorocebus sabaeus
[10] = target: T2, Apoptotic protease-activating factor 1 (Homo sapiens, UniProt O14727); format: functional
T2 sequence (O14727 whole entry): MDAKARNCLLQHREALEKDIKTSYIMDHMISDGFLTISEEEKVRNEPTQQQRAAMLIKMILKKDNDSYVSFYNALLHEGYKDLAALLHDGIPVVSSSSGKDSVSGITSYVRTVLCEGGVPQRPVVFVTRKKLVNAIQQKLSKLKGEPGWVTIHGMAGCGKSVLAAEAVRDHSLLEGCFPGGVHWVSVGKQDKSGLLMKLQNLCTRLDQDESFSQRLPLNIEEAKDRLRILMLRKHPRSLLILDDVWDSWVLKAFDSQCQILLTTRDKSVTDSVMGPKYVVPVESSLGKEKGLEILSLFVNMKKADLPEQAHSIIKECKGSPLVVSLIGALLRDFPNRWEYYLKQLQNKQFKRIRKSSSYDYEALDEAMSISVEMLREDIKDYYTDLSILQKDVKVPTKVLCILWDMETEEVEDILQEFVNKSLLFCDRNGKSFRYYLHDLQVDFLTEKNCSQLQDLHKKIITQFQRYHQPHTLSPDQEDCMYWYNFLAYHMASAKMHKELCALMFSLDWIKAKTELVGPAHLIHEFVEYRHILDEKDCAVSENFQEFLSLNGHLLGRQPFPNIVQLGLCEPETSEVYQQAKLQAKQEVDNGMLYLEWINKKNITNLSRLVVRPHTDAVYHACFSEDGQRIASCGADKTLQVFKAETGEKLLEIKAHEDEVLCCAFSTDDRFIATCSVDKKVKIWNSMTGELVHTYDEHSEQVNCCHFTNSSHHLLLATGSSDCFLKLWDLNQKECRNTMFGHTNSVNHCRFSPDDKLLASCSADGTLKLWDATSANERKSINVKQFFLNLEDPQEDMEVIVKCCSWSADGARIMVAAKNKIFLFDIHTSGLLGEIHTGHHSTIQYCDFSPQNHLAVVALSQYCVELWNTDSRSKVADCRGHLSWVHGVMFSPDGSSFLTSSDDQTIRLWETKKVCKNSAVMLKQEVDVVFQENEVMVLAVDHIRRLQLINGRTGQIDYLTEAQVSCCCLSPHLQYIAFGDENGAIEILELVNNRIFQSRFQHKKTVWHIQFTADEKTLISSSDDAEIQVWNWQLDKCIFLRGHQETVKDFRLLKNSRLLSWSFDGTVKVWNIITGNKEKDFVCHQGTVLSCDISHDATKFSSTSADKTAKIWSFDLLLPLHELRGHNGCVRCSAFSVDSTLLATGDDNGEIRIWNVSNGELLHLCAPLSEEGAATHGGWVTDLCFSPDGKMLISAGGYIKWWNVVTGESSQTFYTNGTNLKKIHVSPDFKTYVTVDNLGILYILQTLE

[11] = target: Glucose-6-phosphate 1-dehydrogenase (Homo sapiens, UniProt P11413); assay: human G6PD enzyme inhibitors, dose response, selectivity assay for P. falciparum G6PD inhibitor project, biochemical, fluorescence (AID 504792); format: functional
Sequence of Glucose-6-phosphate 1-dehydrogenase (P11413 whole entry): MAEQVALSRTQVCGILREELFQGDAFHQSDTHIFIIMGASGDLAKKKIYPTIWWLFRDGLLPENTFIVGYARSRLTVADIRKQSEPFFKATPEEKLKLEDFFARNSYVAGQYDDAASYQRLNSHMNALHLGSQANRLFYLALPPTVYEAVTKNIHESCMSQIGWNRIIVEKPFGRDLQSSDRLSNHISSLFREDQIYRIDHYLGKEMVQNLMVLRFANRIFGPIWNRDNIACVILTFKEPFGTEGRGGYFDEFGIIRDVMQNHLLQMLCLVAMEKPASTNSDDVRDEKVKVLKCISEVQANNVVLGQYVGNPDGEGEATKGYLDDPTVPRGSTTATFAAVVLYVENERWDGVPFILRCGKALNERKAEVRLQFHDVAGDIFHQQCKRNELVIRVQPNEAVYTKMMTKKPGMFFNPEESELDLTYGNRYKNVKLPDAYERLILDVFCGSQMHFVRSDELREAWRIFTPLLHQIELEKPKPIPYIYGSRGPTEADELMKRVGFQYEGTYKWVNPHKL

Sequence of Phospholipase D2 (O14939 whole entry): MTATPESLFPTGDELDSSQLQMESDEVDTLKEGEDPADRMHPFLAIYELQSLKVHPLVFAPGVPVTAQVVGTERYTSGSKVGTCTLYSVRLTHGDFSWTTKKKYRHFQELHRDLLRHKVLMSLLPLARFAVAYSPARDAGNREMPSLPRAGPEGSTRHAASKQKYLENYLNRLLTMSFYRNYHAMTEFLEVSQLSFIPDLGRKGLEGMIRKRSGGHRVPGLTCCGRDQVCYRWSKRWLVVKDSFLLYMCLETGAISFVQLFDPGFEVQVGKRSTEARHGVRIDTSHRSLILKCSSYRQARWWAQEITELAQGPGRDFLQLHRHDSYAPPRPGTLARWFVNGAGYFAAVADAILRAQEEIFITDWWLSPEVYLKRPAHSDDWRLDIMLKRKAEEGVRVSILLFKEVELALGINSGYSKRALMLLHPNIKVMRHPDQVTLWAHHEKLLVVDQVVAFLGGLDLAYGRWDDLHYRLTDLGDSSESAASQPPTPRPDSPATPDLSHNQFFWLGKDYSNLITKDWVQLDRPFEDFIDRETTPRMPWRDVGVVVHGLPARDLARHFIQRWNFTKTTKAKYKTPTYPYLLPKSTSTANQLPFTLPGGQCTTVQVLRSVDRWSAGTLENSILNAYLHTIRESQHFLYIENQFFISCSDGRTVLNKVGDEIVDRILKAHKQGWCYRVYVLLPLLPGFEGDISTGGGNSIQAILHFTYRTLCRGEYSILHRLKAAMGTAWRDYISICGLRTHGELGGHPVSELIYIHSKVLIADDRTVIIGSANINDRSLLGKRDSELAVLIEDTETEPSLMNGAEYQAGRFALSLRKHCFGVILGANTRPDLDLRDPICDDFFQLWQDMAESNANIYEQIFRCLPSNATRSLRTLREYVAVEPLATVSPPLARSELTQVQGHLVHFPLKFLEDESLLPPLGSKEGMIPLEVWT

In the case of `O=C(N[C@@H](Cc1ccccc1)CN1CCC(n2c(=O)[nH]c3ccccc32)CC1)c1cnc2ccccc2c1`, the IC50 [1] is reported as 20 µM (active) and the IC50 [2] is reported as 2.8 µM (active).

For `COc1cccc(N2CCN(CCNC(=O)c3ccc4ccccc4c3)CC2)c1`, the IC50 [1] was 18 µM (active) and the IC50 [2] was 10 µM (active).

With `C[C@@H](CN1CCC(n2c(=O)[nH]c3ccc(F)cc32)CC1)NC(=O)c1ccc(F)c(F)c1` the IC50 [1] was 0.315 µM (active) and the IC50 [2] was 0.005 µM (active).

With `CC(=O)NC(c1ccccc1)c1cc(Cl)c2cccnc2c1O` (stereo not given) the AC50 [3] was 3.79 µM (active), the AC50 [4] was 1.2 µM (active) and the EC50 [5] was 1.73 µM (active). For the same compound, the EC50 [6] was 4.24 µM (active), the EC50 [7] was 0.514 µM (active) and the EC50 [8] was 2.71 µM (active). The CC50 [9] was 6.04 µM (active).

For `CCOC(=O)Nc1ccc(NCc2ccc(F)cc2)nc1N` [FLUPIRTINE MALEATE], the IC50 [10] was 26.6 µM (active) and the IC50 [11] was 65.4 µM (inactive).
